Laboratory results reported in patent US5610185A, “Method for the treatment of hyperproliferative epithelial skin diseases by topical application of hydroxylated aromatic protein cross-linking compounds” (The United States of America as represented by the …, priority 1995, dated 1997).
Entries after “also recorded” stand apart in the source; their conditions may differ.

How the values were obtained:
[1] = tested on: primary mouse keratinocytes; assay: Cornified envelope (cross-linked protein) assay, primary mouse keratinocytes; assay type: cell-based
Method: FIGS. 3A and 3B. A: Time course for cornification of primary mouse keratinocytes in response to MC. Boxes represent […] Ca^2+, triangles represent 100 μM MC, 1.4 mM Ca^2+, and solid circles represent 1 mM MC, 1.4 mM Ca^2+. […] Cells were incubated in medium with 1.4 mM Ca^2+ and MC for 4 hours, then were incubated with MTT (0.5 mg/ml in medium) for a further 4 hours before determination of formazan production.
Primary mouse keratinocytes were isolated from BALB/c newborn mouse skin. Primary keratinocytes, the benign neoplastic keratinocyte cell lines 308 and SP-1 (Strickland et al, Cancer Res., 48, 165-169, 1988) and the mouse squamous cell carcinoma line 1-7 (Greenhalgh et al., Proc. Natl. Acad. Sci., 87, 643-647, 1990) were grown in Eagle's minimal essential medium with 8% fetal calf serum (FCS) (chelexed) and penicillin 20 iu/ml, streptomycin 20 ug/ml (P/S). Unless otherwise indicated, the Ca^2+ concentration in medium was adjusted to 0.05 mM (Hennings et al., Cells, 19, 245-254, 1980). A431 human epidermoid carcinoma cells were obtained from ATCC, Rockville, Md., and were routinely passaged in DMEM with 10% FCS, P/S, glutamine (2 mM) and pyruvate (1 mM). SQCC-Y1 human squamous carcinoma cells and non-tumorigenic HPV 18 and SV 40 infected human keratinocytes were kindly donated by Dr. James Rheinwald of Harvard University, Boston, Mass. and Dr. Richard Schlegel of Georgetown University, Washington D.C. respectively. Human cells were cultured in DMEM/Ham's F12 1:1, 10% FCS, P/S and epidermal growth factor 10 ng/ml.
Primary mouse keratinocytes were incubated with MC for 0, 0.5, 1, 4 and 48 hours and were processed as follows.
The assay measures insoluble cross-linked protein envelopes as described (Hough-Monroe et al. Analytical biochem., 199, 25-28, 1991), with modifications as follows. Cornified envelopes were prepared by scraping monolayers into 2% sodium dodecylsulphate (SDS), 20 mM dithiothreitol (DTT) in phosphate buffered saline (PBS). Unattached cells were pelleted from medium and were resuspended in SDS/DTT and pooled with attached cells. Samples were boiled for 10 mins. Cornified envelope samples were examined under the microscope using phase contrast optics or were applied to an RC60 membrane (Schleicher and Schuell, Keene, N.H.) on a 96-well dot-blot apparatus attached to a vacuum. Samples were washed three times with SDS/DTT and the resultant protein spots on RC60 membrane were fixed and stained as described. Sports were excised and eluted with 1% NH3 OH concentrated solution, 66% methanol (200 ul) overnight. Absorbance of eluate was measured on a Titertek plate reader at 600 nm.
Cells were seeded at low density and were treated with MC for 3 days. Cells were then counted and increase in cell number was compared to untreated controls, or cells were processed for cross-linked protein.
Inhibitors were added 30 mins before MC or stsp (FIG. 6). Cross-linked protein was measured by the cornified envelope assay, described in Example 2.

[2] = tested on: normal human epidermal keratinocytes from foreskin; assay: Cross-linking in primary normal human epidermal keratinocytes; assay type: cell-based; details: Keratinocyte, read-out: concentration for response in cross-linking
Text: The increased sensitivity of mouse primary keratinocytes for the cross-linking effect is not related to the normal phenotype. […] Hydroxylated aromatic protein crosslinking compounds induce the cross-linking of cell proteins into cornified envelope-like structures, causing cell death by a non-biological mechanism which emulates the normal differentiation program of epidermal keratinocytes. In addition to their growth inhibitory properties, the unique protein cross-linking ability of the class of compounds described in the instant invention proffers a new mechanism for the topical treatment of hyperproliferative diseases of the skin.

## COC(=O)C=Cc1cc(O)ccc1O [MC, methyl 2,5-dihydroxycinnamate]
[1]; 100 μM, 48 hours
  cornification after 48 hours: effective
[1]; 1 mM, 48 hours
  cornification after 48 hours: effective
[1]; 1 mM, primary mouse keratinocytes
  time within which cornification / cross-linking occurs or commences: ≤ 4 h
[1]; 4° C. and 37° C., 48 hours
  cross-linked protein at 4° C. and 37° C.: took place at 4 °C and 37 °C; also recorded: Induces Cross-linked protein; also recorded: able to induce cross-linked protein effectively at 4° or 37 °C
[1]; Keratinocyte, 72 h, primary mouse keratinocytes, 3 days, read-out: concentration required to produce protein cross-linking
  minimal effective concentration: > 50 µM
[1]; LTB 2 and HPB 2 at 100 μM, MC 75 or 1000 μM or staurosporine 10 nM, 48 hours
  effect of transglutaminase inhibitors on cross-linking activity: not affected by transglutaminase inhibitors; also recorded: not inhibited by transglutaminase (TGase) inhibitors; also recorded: do not Prevent Protein Cross-linking
[1]; primary mouse keratinocytes, 48 h, 0.1-1 mM
  cross-linked protein (envelope production): induced crosslinked envelope production; also recorded: increased cross-linked protein in a dose-dependent manner
[2]
  minimal effective concentration: ≥ 250 µM
